Like-named read-outs stand apart in the source and are kept apart here.
How the values were obtained:
[1] = test system: chemotherapy-induced hand-foot syndrome; test: Prevention of chemotherapy-induced hand-foot syndrome in rat models (Table 5); assay type: in vivo, SD rats; conditions: Capecitabine 4000 mg/kg once a day, Days 40
Method: Rat animal model was constructed. After several days, the rats develop hand-foot syndrome in their paws. After one week of acclimatization (about 200 g), the SD rats are divided into groups of 10 rats each, followed by gavage administration experiment. The chemotherapy drugs were dissolved, and each rat was given a gavage dose of 1 mL/100 g. After gavage, the rats were fixed with a fixed cylinder. NO-NSAID ointment was applied to the paws of the rats in the medication group, and blank ointment was applied to the paws of the rats in the blank group (as blank control). […] Table 5 lists the animal experimental combinations of chemotherapy drugs and NO-NSAID ointment, as well as the corresponding experimental results (where the value in the control rate column=the incidence rate of hand-foot syndrome in the blank group−the incidence rate of hand-foot syndrome in the treatment group).

[2] = test system: HUVEC cells; test: CCK-8 cell viability: alleviation of proliferative toxicity of anti-tumor agents on HUVEC cells (Tables 7-1, 7-2); assay type: cell-based; conditions: for activation at 100 µM: Homo sapiens, 24 h, percentage increase in viable cells vs anti-tumor agent alone, read-out: Response rate % (average)
Method in brief: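 Viability was measured by CCK-8 after 24-48 h of culture. Cells received anti-tumor agent in DMSO with or without co-added NO-NSAID (dissolved in ethanol or sterile water), and results were corrected against the matching NO-NSAID solvent control.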

[3] = Afatinib (10 μM), NO-NSAID 100 μM
[4] = Cabozantinib (5 μM), NO-NSAID 100 μM
[5] = Dabrafenib (10 μM), NO-NSAID 100 μM
[6] = Everolimus (5 μM), NO-NSAID 100 μM
[7] = Infigratinib (15 μM), NO-NSAID 100 μM
[8] = Lapatinib (5 μM), NO-NSAID 100 μM
[9] = Lenvatinib (10 μM), NO-NSAID 100 μM
[10] = Olmutinib (10 μM), NO-NSAID 100 μM
[11] = Regorafenib (5 μM), NO-NSAID 100 μM
[12] = Selumetinib (5 μM), NO-NSAID 100 μM
[13] = Sorafenib (5 μM), NO-NSAID 100 μM
[14] = Sunitinib (5 μM), NO-NSAID 100 μM

## CC(=O)Oc1ccccc1C(=O)OCOC(=O)CCCCCO[N+](=O)[O-] [Compound A3]
[1]; ointment 1% wt
  Control rate: 28.57%
[1]; ointment 3% wt
  Control rate: 37.50%
[2]; Afatinib (10 μM), NO-NSAID 0.1 μM
  NO-NSAID response rate % (average): 15%
[2]; Afatinib (10 μM), NO-NSAID 1 μM
  NO-NSAID response rate % (average): 24%
[2]; [3]
  NO-NSAID response rate % (average): 32%
  activation at 100 µM: 32%
[2]; Afatinib (10 μM), NO-NSAID 500 μM
  NO-NSAID response rate % (average): 22%
[2]; Cabozantinib (5 μM), NO-NSAID 0.1 μM
  NO-NSAID response rate % (average): 14%
[2]; Cabozantinib (5 μM), NO-NSAID 1 μM
  NO-NSAID response rate % (average): 29%
[2]; [4]
  NO-NSAID response rate % (average): 56%
  activation at 100 µM: 56%
[2]; Cabozantinib (5 μM), NO-NSAID 500 μM
  NO-NSAID response rate % (average): 24%
[2]; Dabrafenib (10 μM), NO-NSAID 0.1 μM
  NO-NSAID response rate % (average): 25%
[2]; Dabrafenib (10 μM), NO-NSAID 1 μM
  NO-NSAID response rate % (average): 30%
[2]; [5]
  NO-NSAID response rate % (average): 64%
  activation at 100 µM: 64%
[2]; Dabrafenib (10 μM), NO-NSAID 500 μM
  NO-NSAID response rate % (average): 33%
[2]; Everolimus (5 μM), NO-NSAID 0.1 μM
  NO-NSAID response rate % (average): −8%
[2]; Everolimus (5 μM), NO-NSAID 1 μM
  NO-NSAID response rate % (average): −8%
[2]; [6]
  NO-NSAID response rate % (average): 56%
  activation at 100 µM: 56%
[2]; Everolimus (5 μM), NO-NSAID 500 μM
  NO-NSAID response rate % (average): 1%
[2]; Anlotinib (5 μM), NO-NSAID 100 μM
  activation at 100 µM: 73%
[2]; Apatinib (10 μM), NO-NSAID 100 μM
  activation at 100 µM: 15%
[2]; Axitinib (10 μM), NO-NSAID 100 μM
  activation at 100 µM: 35%
[2]; Dacomitinib (5 μM), NO-NSAID 100 μM
  activation at 100 µM: 32%
[2]; Encorafenib (5 μM), NO-NSAID 100 μM
  activation at 100 µM: 28%
[2]; Erdafitinib (10 μM), NO-NSAID 100 μM
  activation at 100 µM: 59%
[2]; Famitinib (5 μM), NO-NSAID 100 μM
  activation at 100 µM: 39%
[2]; Fruquintinib (10 μM), NO-NSAID 100 μM
  activation at 100 µM: 22%
[2]; Gefitinib (10 μM), NO-NSAID 100 μM
  activation at 100 µM: 26%
[2]; [7]
  activation at 100 µM: 28%
  NO-NSAID response rate % (average): 28%
[2]; [8]
  activation at 100 µM: 40%
  NO-NSAID response rate % (average): 40%
[2]; [9]
  activation at 100 µM: 69%
  NO-NSAID response rate % (average): 69%
[2]; [10]
  activation at 100 µM: 57%
  NO-NSAID response rate % (average): 57%
[2]; [11]
  activation at 100 µM: 55%
  NO-NSAID response rate % (average): 55%
[2]; [12]
  activation at 100 µM: 49%
  NO-NSAID response rate % (average): 49%
[2]; [13]
  activation at 100 µM: 3%
  NO-NSAID response rate % (average): 3%
[2]; [14]
  activation at 100 µM: 50%
  NO-NSAID response rate % (average): 50%
[2]; Vemurafenib (5 μM), NO-NSAID 100 μM
  activation at 100 µM: 80%
[2]; Infigratinib (15 μM), NO-NSAID 0.1 μM
  NO-NSAID response rate % (average): 18%
[2]; Infigratinib (15 μM), NO-NSAID 1 μM
  NO-NSAID response rate % (average): 28%
[2]; Infigratinib (15 μM), NO-NSAID 500 μM
  NO-NSAID response rate % (average): 20%
[2]; Lapatinib (5 μM), NO-NSAID 0.1 μM
  NO-NSAID response rate % (average): 20%
[2]; Lapatinib (5 μM), NO-NSAID 1 μM
  NO-NSAID response rate % (average): 20%
[2]; Lapatinib (5 μM), NO-NSAID 500 μM
  NO-NSAID response rate % (average): 19%
[2]; Lenvatinib (10 μM), NO-NSAID 0.1 μM
  NO-NSAID response rate % (average): 21%
[2]; Lenvatinib (10 μM), NO-NSAID 1 μM
  NO-NSAID response rate % (average): 14%
[2]; Lenvatinib (10 μM), NO-NSAID 500 μM
  NO-NSAID response rate % (average): 20%
[2]; Olmutinib (10 μM), NO-NSAID 0.1 μM
  NO-NSAID response rate % (average): 27%
[2]; Olmutinib (10 μM), NO-NSAID 1 μM
  NO-NSAID response rate % (average): 35%
[2]; Olmutinib (10 μM), NO-NSAID 500 μM
  NO-NSAID response rate % (average): 23%
[2]; Regorafenib (5 μM), NO-NSAID 0.1 μM
  NO-NSAID response rate % (average): 32%
[2]; Regorafenib (5 μM), NO-NSAID 1 μM
  NO-NSAID response rate % (average): 37%
[2]; Regorafenib (5 μM), NO-NSAID 500 μM
  NO-NSAID response rate % (average): 26%
[2]; Selumetinib (5 μM), NO-NSAID 0.1 μM
  NO-NSAID response rate % (average): 28%
[2]; Selumetinib (5 μM), NO-NSAID 1 μM
  NO-NSAID response rate % (average): 53%
[2]; Selumetinib (5 μM), NO-NSAID 500 μM
  NO-NSAID response rate % (average): 34%
[2]; Sorafenib (5 μM), NO-NSAID 0.1 μM
  NO-NSAID response rate % (average): 13%
[2]; Sorafenib (5 μM), NO-NSAID 1 μM
  NO-NSAID response rate % (average): 7%
[2]; Sorafenib (5 μM), NO-NSAID 500 μM
  NO-NSAID response rate % (average): 29%
[2]; Sunitinib (5 μM), NO-NSAID 0.1 μM
  NO-NSAID response rate % (average): 10%
[2]; Sunitinib (5 μM), NO-NSAID 1 μM
  NO-NSAID response rate % (average): 37%
[2]; Sunitinib (5 μM), NO-NSAID 500 μM
  NO-NSAID response rate % (average): 7%

— patent publication US20250170090A1, “METHOD FOR PREVENTING OR TREATING DISEASE OR DISORDER ASSOCIATED WITH ANTINEOPLASTIC AGENT” (ONQUALITY PHARMACEUTICALS CHINA LTD., priority 2022, published 2025)
